# Tests used:
# IDO1 enzyme = IDO1 enzyme (Homo sapiens, UniProt P14902); test: Determination of biochemical activity of IDO1 enzyme (absorbance at 320 nm); conditions: room temperature, 3 hours
# Summary of the method: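 Absorbance at 320 nm was measured after a 3-hour room-temperature reaction of enzyme with compound. Phosphate buffer at pH 7-8 was used; inhibition was derived from the absorption ratio and fitted to IC50.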
# [1] = target: T1, IDO1 enzyme in the Hela cell (Homo sapiens, UniProt P14902); test: Cell activity: interferon γ-stimulated Hela cells, absorbance of supernatant at 480 nm; assay type: cell-based; conditions: interferon γ 100 ng/ml, 72 hours
# T1 construct: endogenous in cells; host or cells: HeLa cells stimulated with interferon γ (100 ng/ml)
# T1 sequence (P14902 whole entry): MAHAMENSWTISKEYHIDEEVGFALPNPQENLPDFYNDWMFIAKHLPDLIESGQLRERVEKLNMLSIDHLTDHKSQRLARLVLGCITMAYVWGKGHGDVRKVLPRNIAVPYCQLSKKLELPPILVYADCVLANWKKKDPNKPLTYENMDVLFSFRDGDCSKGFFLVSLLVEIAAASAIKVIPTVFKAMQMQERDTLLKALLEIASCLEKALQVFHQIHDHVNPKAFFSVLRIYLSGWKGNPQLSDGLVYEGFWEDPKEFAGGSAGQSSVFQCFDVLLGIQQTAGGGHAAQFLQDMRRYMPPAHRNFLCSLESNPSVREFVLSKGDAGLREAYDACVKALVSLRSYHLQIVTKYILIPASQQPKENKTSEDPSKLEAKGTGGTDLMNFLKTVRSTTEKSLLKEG
# Summary of the method: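 Kynurenine-type readout: supernatant from IFN-γ-stimulated (100 ng/ml final) HeLa cells, 72 h with compound, was acid-hydrolysed with trichloroacetic acid (50 °C, 30 min). After centrifugation, 2% dimethylaminobenzaldehyde/acetic acid added and absorbance measured at 480 nm.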
# Chain of IDO1 enzyme (P14902 whole entry): as above
IC50 (IDO1 enzyme) [µM],IC50 [1] [µM],Structure (SMILES)
0.1 to 1,0.1 to 1,"COc1ccc(NC(=O)Nc2conc2/C(=N/O)Nc2ccc(F)c(Br)c2)cc1 [Embodiment 100, (Z)-1-(4-(N-(3-bromo-4-fluorophenyl)-N′-hydroxyaminoiminomethyl)-isoxazole-3-substituted)-4-(4-methoxyphenyl)urea]"
0.1 to 1,0.1 to 1,"COc1cccc(NC(=O)Nc2conc2/C(=N/O)Nc2ccc(F)c(Br)c2)c1 [Embodiment 101, (Z)-1-(4-(N-(3-bromo-4-fluorophenyl)-N′-hydroxyaminoiminomethyl)-isoxazole-3-substituted)-4-(3-methoxyphenyl)urea]"
0.1 to 1,0.1 to 1,O=C(Nc1conc1/C(=N/O)Nc1ccc(F)c(Br)c1)NC1CCCCC1 [Embodiment 103]
> 1,> 1,"O=C(Nc1conc1/C(=N/O)Nc1ccc(F)c(Br)c1)NC1CCCC1 [Embodiment 104, (Z)-1-(4-(N-(3-bromo-4-fluorophenyl)-N′-hydroxyaminoiminomethyl)-isoxazole-3-substituted)-4-(cyclopentyl)urea]"
< 0.001,< 0.001,O=C(Nc1conc1/C(=N/O)Nc1ccc(F)c(Br)c1)NC1CCC(O)CC1 (stereo not shown) [Embodiment 105]
< 0.001,< 0.001,O=C(Nc1conc1/C(=N/O)Nc1ccc(F)c(Br)c1)NC1CCNCC1 [Embodiment 106]
> 1,> 1,"O=C(Nc1conc1/C(=N/O)Nc1ccc(F)c(Br)c1)NC1CC1 [Embodiment 107, (Z)-1-(4-(N-(3-bromo-4-fluorophenyl)-N′-hydroxyaminoiminomethyl)-isoxazole-3-substituted)-4-cyclopropylurea]"
0.1 to 1,0.1 to 1,NC1CCC(NC(=O)Nc2conc2/C(=N/O)Nc2ccc(F)c(Br)c2)CC1 (stereo not shown) [Embodiment 108]
< 0.001,< 0.001,O=C(NCCCO)Nc1conc1/C(=N/O)Nc1ccc(F)c(Br)c1 [Embodiment 109]
< 0.001,< 0.001,O=C(NCCO)Nc1conc1/C(=N/O)Nc1ccc(F)c(Br)c1 [Embodiment 110]
< 0.001,< 0.001,NCCNC(=O)Nc1conc1/C(=N/O)Nc1ccc(F)c(Br)c1 [Embodiment 111]
0.1 to 1,0.1 to 1,"COc1ccc(NC(=O)Nc2conc2/C(=N/O)Nc2ccc(F)c(Cl)c2)cc1 [Embodiment 112, (Z)-1-(4-(N-(3-chloro-4-fluorophenyl)-N′-hydroxyaminoiminomethyl)-isoxazole-3-substituted)-4-(4-methoxyphenyl)urea]"
0.1 to 1,0.1 to 1,"O=C(Nc1ccccc1)Nc1conc1/C(=N/O)Nc1ccc(F)c(Cl)c1 [Embodiment 113, (Z)-1-(4-(N-(3-chloro-4-fluorophenyl)-N′-hydroxyaminoiminomethyl)-isoxazole-3-substituted)-4-phenylurea]"
< 0.001,< 0.001,O=C(Nc1conc1/C(=N/O)Nc1ccc(F)c(Cl)c1)NC1CCCCC1 [Embodiment 114]
0.1 to 1,0.1 to 1,"COc1ccc(NC(=S)Nc2nonc2/C(=N/O)Nc2ccc(F)c(Br)c2)cc1 [Embodiment 115, (Z)-1-(4-(N-(3-bromo-4-fluorophenyl)-N′-hydroxyaminoiminomethyl)-1,2,5-oxadiazole-3-substituted)-3-(4-methoxyphenyl)thiourea]"
0.1 to 1,0.1 to 1,"O/N=C(\Nc1ccc(F)c(Br)c1)c1nonc1NC(=S)Nc1ccccc1 [Embodiment 116, (Z)-1-(4-(N-(4-bromo-3-fluorophenyl)-N′-hydroxyaminoiminomethyl)-1,2,5-oxadiazole-3-substituted)-3-phenylthiourea]"
< 0.001,< 0.001,"O/N=C(\Nc1ccc(F)c(Br)c1)c1nonc1NC(=S)Nc1ccc(O)cc1 [Embodiment 117, (Z)-1-(4-(N-(3-bromo-4-fluorophenyl)-N′-hydroxyaminoiminomethyl)-1,2,5-oxadiazole-3-substituted)-3-(4-hydroxyphenyl)thiourea]"
< 0.001,< 0.001,"Nc1ccc(NC(=S)Nc2nonc2/C(=N/O)Nc2ccc(F)c(Br)c2)cc1 [Embodiment 118, (Z)-1-(4-(N-(3-bromo-4-fluorophenyl)-N′-hydroxyaminoiminomethyl)-1,2,5-oxadiazole-3-substituted)-3-(4-aminophenyl)thiourea]"

IC50 (IDO1 enzyme) [µM],IC50 [1] [µM],Structure (SMILES)
> 1,> 1,"O/N=C(\Nc1ccc(F)c(Br)c1)c1nonc1NC(=S)Nc1ccc(C(F)(F)F)cc1 [Embodiment 119, (Z)-1-(4-(N-(3-bromo-4-fluorophenyl)-N′-hydroxyaminoiminomethyl)-1,2,5-oxadiazole-3-substituted)-3-(4-trifluoromethylphenyl)thiourea]"
> 1,> 1,COc1ccc(NC(=S)Nc2nonc2/C(=N/O)Nc2ccc(F)c(Br)c2)c(F)c1 [Embodiment 120]
0.1 to 1,0.1 to 1,"O/N=C(\Nc1ccc(F)c(Br)c1)c1nonc1NC(=S)NC1CCCCC1 [Embodiment 121, (Z)-1-(4-(N-(3-bromo-4-fluorophenyl)-N′-hydroxyaminoiminomethyl)-1,2,5-oxadiazole-3-substituted-)-3-(cyclohexyl)thiourea]"
> 1,> 1,"O/N=C(\Nc1ccc(F)c(Br)c1)c1nonc1NC(=S)NC1CCCC1 [Embodiment 122, (Z)-1-(4-(N-(3-bromo-4-fluorophenyl)-N′-hydroxyaminoiminomethyl)-1,2,5-oxadiazole-3-substituted)-3-(cyclopentyl)thiourea]"
< 0.001,< 0.001,"O/N=C(\Nc1ccc(F)c(Br)c1)c1nonc1NC(=S)NC1CCC(O)CC1 (stereo not shown) [Embodiment 123, (Z)-1-(4-(N-(3-bromo-4-fluorophenyl)-N′-hydroxyaminoiminomethyl)-1,2,5-oxadiazole-3-substituted)-3-(4-hydroxycyclohexyl)thiourea]"
< 0.001,< 0.001,"O/N=C(\Nc1ccc(F)c(Br)c1)c1nonc1NC(=S)NC1CCNCC1 [Embodiment 124, (Z)-1-(4-(N-(3-bromo-4-fluorophenyl)-N′-hydroxyaminoiminomethyl)-1,2,5-oxadiazole-3-substituted)-3-(piperidine-4-substituted)thiourea]"
> 1,> 1,"O/N=C(\Nc1ccc(F)c(Br)c1)c1nonc1NC(=S)NC1CC1 [Embodiment 125, (Z)-1-(4-(N-(3-bromo-4-fluorophenyl)-N′-hydroxyaminoiminomethyl)-1,2,5-oxadiazole-3-substituted)-3-(cyclopropyl)thiourea]"
0.1 to 1,0.1 to 1,"NC1CCC(NC(=S)Nc2nonc2/C(=N/O)Nc2ccc(F)c(Br)c2)CC1 (stereo not shown) [Embodiment 126, (Z)-1-(4-(N-(3-bromo-4-fluorophenyl)-N′-hydroxyaminoiminomethyl)-1,2,5-oxadiazole-3-substituted)-3-(4-aminocyclohexyl)thiourea]"
< 0.001,< 0.001,"OCCCNC(=S)Nc1nonc1/C(=N/O)Nc1ccc(F)c(Br)c1 [Embodiment 127, (Z)-1-(4-(N-(3-bromo-4-fluorophenyl)-N′-hydroxyaminoiminomethyl)-1,2,5-oxadiazole-3-substituted)-3-(3-hydroxypropyl)thiourea]"
< 0.001,< 0.001,"OCCNC(=S)Nc1nonc1/C(=N/O)Nc1ccc(F)c(Br)c1 [Embodiment 128, (Z)-1-(4-(N-(3-bromo-4-fluorophenyl)-N′-hydroxyaminoiminomethyl)-1,2,5-oxadiazole-3-substituted)-3-(2-hydroxyethyl)thiourea]"
0.1 to 1,0.1 to 1,"NCCNC(=S)Nc1nonc1/C(=N/O)Nc1ccc(F)c(Br)c1 [Embodiment 129, (Z)-1-(4-(N-(3-bromo-4-fluorophenyl)-N′-hydroxyaminoiminomethyl)-1,2,5-oxadiazole-3-substituted)-3-(2-aminoethyl)thiourea]"
0.1 to 1,0.1 to 1,"COc1ccc(NC(=S)Nc2conc2/C(=N/O)Nc2ccc(F)c(Cl)c2)cc1 [Embodiment 130, (Z)-1-(4-(N-(3-chloro-4-fluorophenyl)-N′-hydroxyaminoiminomethyl)-isoxazole-3-substituted)-4-(4-methoxyphenyl)thiourea]"
0.1 to 1,0.1 to 1,"O/N=C(\Nc1ccc(F)c(Cl)c1)c1nocc1NC(=S)Nc1ccccc1 [Embodiment 131, (Z)-1-(4-(N-(3-chloro-4-fluorophenyl)-N′-hydroxyaminoiminomethyl)-isoxazole-3-substituted)-4-(phenyl)thiourea]"
0.1 to 1,0.1 to 1,"COc1ccc(NC(=S)Nc2nocc2/C(=N/O)Nc2ccc(F)c(Br)c2)cc1 [Embodiment 133, (Z)-1-(4-(N-(3-bromo-4-fluorophenyl)-N′-hydroxyaminoiminomethyl)-isoxazole-3-substituted)-3-(4-methoxyphenyl)thiourea]"
0.1 to 1,0.1 to 1,"O/N=C(\Nc1ccc(F)c(Br)c1)c1conc1NC(=S)Nc1ccccc1 [Embodiment 134, (Z)-1-(4-(N-(3-bromo-4-fluorophenyl)-N′-hydroxyaminoiminomethyl)-isoxazole-3-substituted)-3-(phenyl)thiourea]"
0.1 to 1,0.1 to 1,"O/N=C(\Nc1ccc(F)c(Br)c1)c1conc1NC(=S)NC1CCCCC1 [Embodiment 135, (Z)-1-(4-(N-(3-bromo-4-fluorophenyl)-N′-hydroxyaminoiminomethyl)-isoxazole-3-substituted)-3-(cyclohexyl)thiourea]"
> 1,> 1,"COc1ccc(NC(=S)Nc2cocc2/C(=N/O)Nc2ccc(F)c(Br)c2)cc1 [Embodiment 136, (Z)-1-(4-(N-(3-bromo-4-fluorophenyl)-N′-hydroxyaminoiminomethyl)-furan-3-substituted)-3-(4-methoxyphenyl)thiourea]"

# — US11014895B2, “Heterocyclic urea compound, and drug composition and application thereof” (CHINA PHARMACEUTICAL UNIVERSITY, priority 2017, dated 2021)
